Results reported in ChEMBL document CHEMBL1133073, “Structure-activity relationships of carboxymethylpullulan-peptide-doxorubicin conjugates--systematic modification of peptide spacers” (Bioorg Med Chem Lett, 2000).

Legend:
Rattus norvegicus [1] = assay: In vivo spleen distribution of total doxorubicin after 6 hr intravenous administration of 2.5 mg/kg of compound in rat bearing Walker 256 cells; format: ADME, organism-based; set-up: dose 2.5 mg/kg, route intravenous
Rattus norvegicus [2] = organism: Rattus norvegicus; assay: Effective dose was measured in rats; format: functional
Rattus norvegicus [3] = assay: In vivo plasma distribution of free doxorubicin after 6 h intravenous administration of 2.5 mg/kg of compound in rat bearing Walker 256 cells; format: ADME, organism-based; set-up: dose 2.5 mg/kg, route intravenous
Rattus norvegicus [4] = assay: In vivo plasma distribution of total doxorubicin after 6 hr intravenous administration of 2.5 mg/kg of compound in rat bearing Walker 256 cells; format: ADME, organism-based; set-up: dose 2.5 mg/kg, route intravenous
Rattus norvegicus [5] = assay: In vivo liver distribution of free doxorubicin after 6 hr intravenous administration of 2.5 mg/kg of compound in rat bearing Walker 256 cells; format: ADME, organism-based; set-up: dose 2.5 mg/kg, route intravenous
Rattus norvegicus [6] = assay: In vivo tumor distribution of total doxorubicin after 6 hr intravenous administration of 2.5 mg/kg of compound in rat bearing Walker 256 cells; format: ADME, organism-based; set-up: dose 2.5 mg/kg, route intravenous
Rattus norvegicus [7] = assay: In vivo heart distribution of free doxorubicin after 6 hr intravenous administration of 2.5 mg/kg of compound in rat bearing Walker 256 cells; format: ADME, organism-based; set-up: dose 2.5 mg/kg, route intravenous
Rattus norvegicus [8] = assay: In vivo tumor distribution of free doxorubicin after 6 h intravenous administration of 2.5 mg/kg of compound in rat bearing Walker 256 cells; format: ADME, organism-based; set-up: dose 2.5 mg/kg, route intravenous
Rattus norvegicus [9] = assay: In vivo liver distribution of total doxorubicin after 6 h intravenous administration of 2.5 mg/kg of compound in rat bearing Walker 256 cells; format: ADME, organism-based; set-up: dose 2.5 mg/kg, route intravenous

COc1cccc2c1C(=O)c1c(O)c3c(c(O)c1C2=O)C[C@@](O)(C(=O)CO)C[C@@H]3O[C@H]1C[C@H](N)[C@H](O)[C@H](C)O1 [DOXORUBICIN]
Dose/g tissue (Rattus norvegicus [1]): 2.21%
ED50 (Rattus norvegicus [2]): 1.17 mg/kg
Dose/g tissue (Rattus norvegicus [3]): 0%
Dose/g tissue (Rattus norvegicus [4]): 0%
Dose/g tissue (Rattus norvegicus [5]): 0.56%
Dose/g tissue (Rattus norvegicus [6]): 0.35%
Dose/g tissue (Rattus norvegicus [7]): 1.13%
Dose/g tissue (Rattus norvegicus [8]): 0.24%
Dose/g tissue (Rattus norvegicus [9]): 0.54%
